Assay results published in ChEMBL document CHEMBL1141810, “Excavatolides F-M, new briarane diterpenes from the gorgonian Briareum excavatum” (1999).
≈ marks a conversion by molar mass, not a printed value.

Legend:
Format in all cases: functional
Settings in all cases: read-out: ED50 (the source's name)
[1] = system: P388; assay: Cytotoxicity against mouse P388 cells by MTT assay
[2] = system: KB; assay: Cytotoxicity against human KB cells by MTT assay
[3] = system: A549; assay: Cytotoxicity against human A549 cells by MTT assay
[4] = system: HT-29; assay: Cytotoxicity against human HT-29 cells by MTT assay

CCCC(=O)O[C@H]1C[C@H](OC(C)=O)[C@@]2(C)[C@H]([C@H]1C)[C@@H](OC(C)=O)[C@]13O[C@@]1(C)C(=O)O[C@H]3/C=C(/C)C[C@H](OC(C)=O)[C@H]2OC(C)=O [EXCAVATOLIDE J] showed an EC50 [1] of 3.8 µg/mL (≈ 5.97 µM), an EC50 [2] of 6.5 µg/mL (≈ 10.2 µM) and an EC50 [3] of 5.2 µg/mL (≈ 8.17 µM). It also gave an EC50 [4] of 5.2 µg/mL (≈ 8.17 µM).

For CC(=O)O[C@H]1C[C@H](OC(C)=O)[C@@]2(C)[C@H]([C@H]1C)[C@@H](OC(C)=O)[C@]13O[C@@]1(C)C(=O)O[C@H]3/C=C(/C)CC[C@H]2OC(C)=O [EXCAVATOLIDE G], the EC50 [1] was 15.7 µg/mL (≈ 28.5 µM), the EC50 [2] was greater than 50 µg/mL and the EC50 [3] was 22.8 µg/mL (≈ 41.4 µM). For the same molecule, the EC50 [4] was greater than 50 µg/mL.

Molecule CCCC(=O)O[C@H]1C[C@H](OC(C)=O)[C@@]2(C)[C@H]([C@H]1C)[C@@H](OC(C)=O)[C@]13O[C@@]1(C)C(=O)O[C@H]3/C=C(/C)C[C@H](OC(=O)CCC)[C@H]2OC(C)=O [EXCAVATOLIDE H] has an EC50 [1] greater than 50 µg/mL, an EC50 [2] greater than 50 µg/mL and an EC50 [3] greater than 50 µg/mL. The EC50 [4] was greater than 50 µg/mL.

CCCC(=O)O[C@H]1C/C(C)=C\[C@@H]2OC(=O)[C@]3(C)O[C@]23[C@H](OC(C)=O)[C@H]2[C@@H](C)[C@@H](OC(C)=O)C[C@H](OC(C)=O)[C@]2(C)[C@@H]1OC(C)=O [EXCAVATOLIDE I] showed an EC50 [1] greater than 50 µg/mL, an EC50 [2] greater than 50 µg/mL and an EC50 [3] greater than 50 µg/mL. For the same molecule, the EC50 [4] was greater than 50 µg/mL.

Molecule CC(=O)O[C@H]1C/C(C)=C\[C@@H]2OC(=O)[C@]3(C)O[C@]23[C@H](O)[C@H]2[C@@H](C)[C@@H](O)C[C@H](OC(C)=O)[C@]2(C)[C@@H]1O [EXCAVATOLIDE M] has an EC50 [1] of 0.001 µg/mL (≈ 0.00207 µM), an EC50 [2] of 1 µg/mL (≈ 2.07 µM) and an EC50 [3] of 0.1 µg/mL (≈ 0.207 µM). For the same molecule, the EC50 [4] was 2.2 µg/mL (≈ 4.56 µM).

Work on CC(=O)O[C@H]1C[C@H](OC(C)=O)[C@@]2(C)[C@H]([C@H]1C)[C@@H](OC(C)=O)[C@]13O[C@@]1(C)C(=O)O[C@H]3/C=C(/C)C[C@H](OC(C)=O)[C@H]2OC(C)=O [EXCAVATOLIDE K] yielded an EC50 [1] of 0.9 µg/mL (≈ 1.48 µM), an EC50 [2] of 3.3 µg/mL (≈ 5.42 µM) and an EC50 [3] of 3 µg/mL (≈ 4.93 µM). For the same molecule, the EC50 [4] was 1.3 µg/mL (≈ 2.14 µM).

Molecule CCCC(=O)O[C@H]1C[C@H](OC(C)=O)[C@@]2(C)[C@H]([C@H]1C)[C@@H](OC(C)=O)[C@]13O[C@@]1(C)C(=O)O[C@H]3/C=C(C)\C=C\[C@@H]2OC(C)=O [EXCAVATOLIDE F] has an EC50 [1] of 6.2 µg/mL (≈ 10.8 µM), an EC50 [2] of 7 µg/mL (≈ 12.1 µM) and an EC50 [3] of 5.2 µg/mL (≈ 9.02 µM). The EC50 [4] was 5.5 µg/mL (≈ 9.54 µM).
